Several values for one entry are separate records, joined by “and”; a condition that tells them apart may be missing. Equal values may be shown once.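 Following 48 hours of exposure in 96-well plates, responses at five concentrations were used to interpolate endpoints linearly. GI50 marks 50% less growth. TGI is the concentration that stops growth completely.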
Tests used:
Assay in all cases: NCI tumour cell line growth inhibition, 48 h
KM12 colon = system: KM12 colon
TK-10 renal = system: TK-10 renal
786-0 renal = system: 786-0 renal
SNB-19 CNS = system: SNB-19 CNS
HCT-116 colon = system: HCT-116 colon
NCI/ADR-RES ovarian = system: NCI/ADR-RES ovarian
COLO 205 colon = system: COLO 205 colon
M14 melanoma = system: M14 melanoma

| Structure (SMILES) | GI50 (KM12 colon) | TGI (KM12 colon) | GI50 (TK-10 renal) | TGI (TK-10 renal) | GI50 (786-0 renal) | TGI (786-0 renal) | GI50 (SNB-19 CNS) | TGI (SNB-19 CNS) [µM] | GI50 (HCT-116 colon) | TGI (HCT-116 colon) | GI50 (NCI/ADR-RES ovarian) | TGI (NCI/ADR-RES ovarian) | GI50 (COLO 205 colon) | TGI (COLO 205 colon) | GI50 (M14 melanoma) | TGI (M14 melanoma) |
| --- | --- | --- | --- | --- | --- | --- | --- | --- | --- | --- | --- | --- | --- | --- | --- | --- |
| COc1ccc(-n2cc(-c3cc(OC)c(OC)c(OC)c3)nc2SCc2ccccc2)cc1OC | > 100 µM | > 100 µM | > 100 µM | > 100 µM | > 100 µM | > 100 µM | > 100 µM | > 100 | 49.1 µM | > 100 µM | > 100 µM | > 100 µM | 69.3 µM | > 100 µM | > 91.6 µM | > 100 µM |
| O=c1[nH]c(=O)c2cc(C3CC(O)C(CO)O3)ccc2[nH]1 (configuration not stated) | – | – | – | – | > 100 µM | > 100 µM | > 100 µM | > 100 | > 100 µM | > 100 µM | > 100 µM | > 100 µM | > 100 µM | > 100 µM | > 100 µM | > 100 µM |
| O=C(O)C1C(C(=O)O)C23CC2(C(=O)O)C2(C(=O)O)CCC3=C3CCCC312 (configuration not stated) | – | 88.4 µM | – | 38.1 µM | – | > 100 µM | – | 73.6 | – | 66.7 µM | – | > 100 µM | – | 16.8 µM | – | > 100 µM |
| Cc1ccc2c(c1)C(C)Cc1c(Cl)ncnc1N2C (configuration not stated) | 2.12 µM | 7.98 µM | 4.32 µM | 34.4 µM | 3.25 µM | 17.8 µM | 4.89 µM | 49.7 | 3.01 µM | 14.2 µM | 2.73 µM | 23.1 µM | 2.11 µM | 4.62 µM | 2.77 µM | 22.9 µM |
| O=C1C=CC[C@H](/C=C/c2ccccc2)O1 | 4.06 µM | 17.8 µM | 11.5 µM | > 53.2 µM | 6.28 µM | 24.3 µM | 3.61 µM | 22.6 | 1.72 µM | 13.9 µM | 3.12 µM | > 23.2 µM | 2.03 µM | 20.2 µM | 5.85 µM | 23.3 µM |
| COc1ccccc1N1CCN(CCc2c[nH]c3cc4c(cc23)OCO4)CC1 | 27.3 µM | > 100 µM | 27.1 µM | > 100 µM | 32.4 µM | > 100 µM | 26 µM | > 100 | 10.9 µM | > 100 µM | 26.4 µM | > 100 µM | 15.3 µM | 34.7 µM | 11.3 µM | 40.7 µM |
| CNCCNc1c2c(c(NCCNC)c3[nH]ccc13)C(=O)c1ccccc1C2=O | 0.0892 µM | 0.374 µM | 0.183 µM | 0.502 µM | 0.0646 µM | 0.821 µM | 4.58 µM | 11.5 | 0.0269 µM | 0.498 µM | 1.26 µM | 8.21 µM | 3.32 µM | – | 0.27 µM | 1.35 µM |
| COc1cc2c(cc1OCCCCCOc1ccc(-n3c(C)nc4ccccc4c3=O)cc1)N=C[C@@H]1CCCN1C2=O | 0.173 µM | 0.362 µM | 0.32 µM | 0.867 µM | 0.157 µM | 0.36 µM | 1 µM | – | 0.167 µM | 0.327 µM | 1.96 µM | 6.31 µM | 0.165 µM | 0.37 µM | 0.18 µM | 0.375 µM |
| COc1ccc(C(=O)/C=C/c2ccc3c(c2)OCO3)c(OCc2ccccc2)c1 | – | > 100 µM | – | > 100 µM | – | > 100 µM | – | > 100 | – | > 100 µM | – | – | – | > 100 µM | – | > 100 µM |
| CNC(=O)CC1NC(=O)c2csc(n2)-c2ccc(-c3nc(C4=NC(C(=O)N5CCCC5C(N)=O)CO4)cs3)nc2-c2csc(n2)-c2csc(n2)C(C(C)C)NC(=O)CNC(=O)c2csc(n2)C(C(C)C)NC(=O)c2nc1sc2C (configuration not stated) | > 25 µM | 4.34 µM and > 25 µM | > 25 µM | – | > 25 µM | > 25 µM | > 25 µM | > 25 | > 25 µM | > 25 µM | > 25 µM | > 25 µM | > 25 µM | – | – | – |
| Nc1nc(N)c2c(n1)NC(c1ccc(F)cc1)C1CCc3ccccc3C1=N2 (configuration not stated) | 4.93 µM | 17 µM | 3.63 µM | 16.9 µM | 6.9 µM | 20.1 µM | 12 µM | 24.8 | 3.04 µM | 11.9 µM | 3.19 µM | 11.4 µM | 1.62 µM | 3.61 µM | 5.51 µM | 18.7 µM |
| COC(=O)CCC1CCC(c2cc(F)ccc2F)(S(=O)(=O)c2ccc(Cl)cc2)CC1 (configuration not stated) | 62.1 µM | > 100 µM | > 100 µM | > 100 µM | > 100 µM | > 100 µM | > 100 µM | > 100 | 38.2 µM | > 100 µM | > 100 µM | > 100 µM | > 100 µM | > 100 µM | 55.4 µM | > 100 µM |
| Cc1cc(Cc2cc(C)cc(C(C)(C)C)c2O)c(O)c(Cc2cc(C)cc(C(C)(C)C)c2O)c1 | – | 10 µM | – | 8.59 µM | – | 9.09 µM | – | 15.7 | – | 5.44 µM | – | 12.6 µM | – | 9.17 µM | – | 7.26 µM |
| CC1(O)CC(c2nc(-c3ccc4ccc(-c5ccccc5)nc4c3)c3c(N)nccn23)C1 (configuration not stated) | 4.31 µM and 3.88 µM | 19.4 µM and > 10 µM | 12 µM and > 10 µM | 56.3 µM and > 10 µM | 15 µM and > 10 µM | 53.7 µM and > 10 µM | 19.8 µM and > 10 µM | > 100 | 7.32 µM and 5.29 µM | 26.7 µM and > 10 µM | 10.6 µM and > 10 µM | 96.9 µM and > 10 µM | 0.346 µM and 0.0989 µM | 14.2 µM and 4.07 µM | 11.5 µM and > 10 µM | 31.1 µM and > 10 µM |
| Oc1ccccc1C=Nc1nc(SCc2ccccc2)nc2[nH]ncc12 | 37.5 µM | > 100 µM | 23.9 µM | > 100 µM | 89.4 µM | > 100 µM | 49.5 µM | > 100 | – | – | 43.8 µM | > 100 µM | 29.1 µM | > 100 µM | 38.4 µM | > 100 µM |
| CCOC(=O)/C(=C\c1ccc(C#N)cc1)C(C)=O | – | 43 µM | – | 57.1 µM | – | 32.9 µM | – | > 100 | – | 57.3 µM | – | > 100 µM | – | > 100 µM | – | 95.1 µM |
| N#CC1=C(N)Oc2c(sc3c(Br)cccc23)C1c1ccc(Br)cc1 (configuration not stated) | 0.434 µM | 10.2 µM | 0.986 µM | 2.57 µM | 0.776 µM | 2.96 µM | 0.707 µM | 12.8 | 0.407 µM | 1.84 µM | 0.416 µM | 5.14 µM | 0.406 µM | 1.88 µM | 0.515 µM | 3.5 µM |

From PubChem BioAssay (NCI)
